This note sets out measurements from PubChem BioAssay AID651799 (The Scripps Research Institute Molecular Screening Center, 2012).

This test has as its target Nuclear receptor coactivator 2 (Homo sapiens) (UniProt Q15596). The test can be described thus: NCOA2-driven reporter transcription inhibition – cell-based, luciferase reporter, luminescence, selectivity assay for SRC1 inhibitor project, late-stage follow-up (AID 651799). The following applies: cell-based SRC2 luciferase reporter.

Structures are written as SMILES. Calls of active or inactive are those of the source. How the calls were made is not given here.

Chain of Nuclear receptor coactivator 2 (Homo sapiens) (Q15596 whole entry, looked up): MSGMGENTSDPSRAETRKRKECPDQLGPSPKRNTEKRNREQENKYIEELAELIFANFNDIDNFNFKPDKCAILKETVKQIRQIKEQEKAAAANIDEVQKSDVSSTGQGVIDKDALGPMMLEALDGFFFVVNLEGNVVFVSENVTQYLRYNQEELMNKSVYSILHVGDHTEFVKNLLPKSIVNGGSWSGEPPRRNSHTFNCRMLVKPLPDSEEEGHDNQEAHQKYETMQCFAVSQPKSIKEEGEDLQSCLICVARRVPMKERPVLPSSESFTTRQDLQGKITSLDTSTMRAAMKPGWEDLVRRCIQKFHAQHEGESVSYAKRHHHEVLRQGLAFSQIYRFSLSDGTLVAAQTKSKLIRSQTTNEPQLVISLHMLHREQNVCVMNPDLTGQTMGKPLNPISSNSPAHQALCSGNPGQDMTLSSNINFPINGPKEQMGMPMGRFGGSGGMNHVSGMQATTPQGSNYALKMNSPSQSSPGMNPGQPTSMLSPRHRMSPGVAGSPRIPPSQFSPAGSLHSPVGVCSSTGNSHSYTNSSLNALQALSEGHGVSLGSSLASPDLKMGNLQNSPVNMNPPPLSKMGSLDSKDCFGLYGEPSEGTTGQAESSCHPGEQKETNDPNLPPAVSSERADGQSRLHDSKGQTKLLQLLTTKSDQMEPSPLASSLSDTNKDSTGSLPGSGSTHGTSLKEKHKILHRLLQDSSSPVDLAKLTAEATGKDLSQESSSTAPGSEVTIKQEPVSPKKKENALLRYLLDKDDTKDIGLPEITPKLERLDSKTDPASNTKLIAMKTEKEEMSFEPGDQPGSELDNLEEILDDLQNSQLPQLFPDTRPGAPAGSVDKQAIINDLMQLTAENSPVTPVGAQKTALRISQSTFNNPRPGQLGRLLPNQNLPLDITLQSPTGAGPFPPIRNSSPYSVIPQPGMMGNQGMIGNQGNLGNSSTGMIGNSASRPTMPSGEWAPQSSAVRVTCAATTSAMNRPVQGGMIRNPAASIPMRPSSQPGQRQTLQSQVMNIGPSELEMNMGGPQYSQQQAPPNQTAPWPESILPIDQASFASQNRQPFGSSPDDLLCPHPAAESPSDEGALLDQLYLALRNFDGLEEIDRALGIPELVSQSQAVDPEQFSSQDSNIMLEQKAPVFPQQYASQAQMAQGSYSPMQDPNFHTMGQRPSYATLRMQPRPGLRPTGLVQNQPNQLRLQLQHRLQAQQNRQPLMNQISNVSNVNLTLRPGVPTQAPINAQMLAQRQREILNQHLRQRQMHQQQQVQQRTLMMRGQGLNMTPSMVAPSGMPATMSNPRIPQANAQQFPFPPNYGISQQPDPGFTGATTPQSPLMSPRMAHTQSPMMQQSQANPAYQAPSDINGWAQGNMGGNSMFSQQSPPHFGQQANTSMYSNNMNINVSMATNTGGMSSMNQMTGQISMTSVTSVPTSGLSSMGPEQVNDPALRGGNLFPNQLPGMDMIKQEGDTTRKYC

`COc1ccc(NC(=O)CN(C)C(=O)C2(c3ccccc3)CCCC2)cc1`: the IC50 result was “inactive”.
For `COc1ccc(Nc2ncnc3ccc(Br)cc23)c(OC)c1` the value was “inactive”.
